The target of series [1] is T1, Recombinant human cyclooxygenase-2 (COX-2) (Homo sapiens, UniProt P35354).
T1 construct: purchased Cayman Chemical
T1 sequence (P35354 18-604): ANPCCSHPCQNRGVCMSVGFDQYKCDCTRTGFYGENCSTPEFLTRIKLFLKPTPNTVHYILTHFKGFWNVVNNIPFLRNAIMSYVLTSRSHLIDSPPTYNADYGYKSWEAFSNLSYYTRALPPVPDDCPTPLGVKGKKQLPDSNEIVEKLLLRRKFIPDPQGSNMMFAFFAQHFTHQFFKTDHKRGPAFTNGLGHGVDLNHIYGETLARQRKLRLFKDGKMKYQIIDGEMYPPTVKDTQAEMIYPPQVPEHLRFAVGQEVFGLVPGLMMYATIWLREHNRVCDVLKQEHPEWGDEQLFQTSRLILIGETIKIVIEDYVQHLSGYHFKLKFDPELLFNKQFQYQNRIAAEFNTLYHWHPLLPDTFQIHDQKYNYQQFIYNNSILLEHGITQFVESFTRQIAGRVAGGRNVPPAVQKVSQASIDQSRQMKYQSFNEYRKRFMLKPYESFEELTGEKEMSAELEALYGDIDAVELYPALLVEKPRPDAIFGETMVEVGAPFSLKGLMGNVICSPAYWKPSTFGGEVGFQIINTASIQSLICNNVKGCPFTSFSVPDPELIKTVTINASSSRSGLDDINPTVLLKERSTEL
Nature of the series: Cyclooxygenase-2 assay. To be noted: 50 μM dye, 100 μM arachidonic acid, 2 μM hemin, 37° C., thirty minutes, FIG. 2. Format: biochemical. How it is done:
Amplex Red (Molecular Probes, Inc. A-12222) and Compound 4 were resuspended to 10 mM in dry DMSO. Recombinant human cyclooxygenase-2 (COX-2, from Cayman Chemical) was serially diluted (in triplicate for each dye) two-fold in a 96-well microplate in 50 μl of 100 mM Tris, pH 8.0. 10 μl of 20 μM hemin (a COX-2 cofactor) in 100 mM Tris, pH 8.0 was added to all wells. After a five minute incubation at room temperature to allow the hemin to interact with the COX-2 enzyme, 40 μl of either 125 μM Amplex Red+250 μM arachidonic acid or 125 μM Compound 4+250 μM arachidonic acid in 100 mM Tris, pH 8.0 was added to all wells. The final reagent concentrations in the wells was zero to 50 Units/ml COX-2, 2 μM hemin, 100 μM arachidonic acid, and 50 μM Amplex Red reagent or Compound 4 in 100 μl of 100 mM Tris, pH 8.0.
(§1) The resulting reactions were incubated at 37° C. in the dark for thirty minutes. At that point, the resulting fluorescence was measured on a PerSeptive Biosystems CytoFluor 4000 microtiter plate reader (Framingham, Mass.). The excitation filter was 530 nm (+/−12.5 nm) and the emission filter 590 nm (+/−17.5 nm), with a gain setting of 40.

Series [2] deals with T2, horseradish peroxidase (HRP) (Armoracia rusticana, UniProt P00433).
T2 sequence (P00433 31-338): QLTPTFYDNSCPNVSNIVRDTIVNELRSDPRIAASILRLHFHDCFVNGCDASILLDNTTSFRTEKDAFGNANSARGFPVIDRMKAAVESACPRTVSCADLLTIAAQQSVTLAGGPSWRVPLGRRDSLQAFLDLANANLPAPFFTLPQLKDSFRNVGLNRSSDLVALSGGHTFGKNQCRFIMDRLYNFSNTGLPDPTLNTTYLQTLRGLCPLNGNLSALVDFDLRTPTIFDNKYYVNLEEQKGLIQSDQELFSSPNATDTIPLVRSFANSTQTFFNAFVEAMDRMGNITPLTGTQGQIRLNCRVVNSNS
Nature of the series: Detection of horseradish peroxidase activity at acidic pH. Format: biochemical. The following applies: for Z-factor: pH 5.5, 50 μM H2O2, 60 minutes at 30° C.; for Lower limit of detection of HRP activity: pH 5.5, dye as reporting fluorogenic substrate. How it is done:
A dilution series of horseradish peroxidase (HRP; EC 1.11.1.7) was prepared in 0.1 M sodium acetate, pH 5.5. The enzyme dilutions were added to a CoStar 96-well round bottom plate in 50 μL aliquots. Mixtures containing 100 μM hydrogen peroxide (H2O2), 0.1 M sodium acetate, pH 5.5, and 100 μM Amplex Red or 100 μM Compound 4 were prepared, and reactions were initiated by addition of 50 μL of reagent mixture to the enzyme dilution series. Reactions were done in triplicate, for 60 minutes at 30° C. Fluorescence was measured with a CytoFluor® Series 4000 Multi-Well Plate Reader (PerSeptive Biosystems, Framingham, Mass.), 530+/−12.5 nm excitation, 580+/−25 nm emission. The fluorescent signal was graphed as a function of HRP concentration (See, FIG. 9) and the Z-factor (Table 6) was calculated according to Zhang et al. (1999).

The next series has as its target T3, COX-2 (Mus musculus, UniProt Q05769).
T3 construct: RAW 264.7 mouse macrophage cells (ATCC # TIB-71) were grown overnight; endogenous in cells; host or cells: RAW 264.7 mouse macrophage cells (ATCC TIB-71), LPS-treated, sonicated lysate
T3 sequence (Q05769 18-604): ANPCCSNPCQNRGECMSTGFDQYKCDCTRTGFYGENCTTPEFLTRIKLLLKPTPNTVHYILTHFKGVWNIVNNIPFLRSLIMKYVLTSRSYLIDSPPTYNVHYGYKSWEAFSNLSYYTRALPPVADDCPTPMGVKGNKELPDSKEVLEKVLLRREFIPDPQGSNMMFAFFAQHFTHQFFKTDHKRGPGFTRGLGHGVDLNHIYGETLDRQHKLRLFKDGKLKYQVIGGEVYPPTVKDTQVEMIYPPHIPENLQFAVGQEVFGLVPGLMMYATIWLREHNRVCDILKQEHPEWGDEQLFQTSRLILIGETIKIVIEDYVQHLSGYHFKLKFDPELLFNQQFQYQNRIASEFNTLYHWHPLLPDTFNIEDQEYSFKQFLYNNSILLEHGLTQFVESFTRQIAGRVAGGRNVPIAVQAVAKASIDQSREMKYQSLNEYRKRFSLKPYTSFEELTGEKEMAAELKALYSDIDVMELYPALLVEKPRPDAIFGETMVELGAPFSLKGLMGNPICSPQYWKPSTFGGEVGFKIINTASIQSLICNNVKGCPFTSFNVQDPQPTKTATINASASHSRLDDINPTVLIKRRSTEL
Nature of the series: Detection of LPS-induced COX-2 activity in RAW 264.7 cell lysate. The format is biochemical. To be noted: 40 μM dye, 80 μM arachidonic acid, 200,000 lysed cell equivalents, 37° C., twenty minutes, FIG. 7.

The target of a further series is T4, Myeloperoxidase (Homo sapiens, UniProt P05164).
T4 construct: purchased Sigma M-6908
T4 sequence (P05164 49-745): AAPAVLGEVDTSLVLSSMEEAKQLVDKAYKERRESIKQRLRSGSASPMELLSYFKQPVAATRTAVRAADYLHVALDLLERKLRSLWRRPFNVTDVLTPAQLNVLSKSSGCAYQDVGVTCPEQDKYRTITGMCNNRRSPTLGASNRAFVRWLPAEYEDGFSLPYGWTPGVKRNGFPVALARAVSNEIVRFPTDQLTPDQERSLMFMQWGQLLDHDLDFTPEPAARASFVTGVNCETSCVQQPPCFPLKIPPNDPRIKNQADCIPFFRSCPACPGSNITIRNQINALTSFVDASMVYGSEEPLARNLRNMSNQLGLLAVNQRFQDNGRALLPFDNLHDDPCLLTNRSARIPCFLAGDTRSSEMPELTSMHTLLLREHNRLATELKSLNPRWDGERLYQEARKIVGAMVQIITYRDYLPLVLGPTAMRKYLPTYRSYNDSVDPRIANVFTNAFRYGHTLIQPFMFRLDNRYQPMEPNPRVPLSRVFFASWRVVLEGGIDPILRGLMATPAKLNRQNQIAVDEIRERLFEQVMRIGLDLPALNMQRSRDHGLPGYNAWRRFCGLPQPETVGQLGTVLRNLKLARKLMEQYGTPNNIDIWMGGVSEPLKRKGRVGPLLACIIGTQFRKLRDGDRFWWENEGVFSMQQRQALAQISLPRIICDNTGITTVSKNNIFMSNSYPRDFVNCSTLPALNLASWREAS
Nature of the series: Detection of myeloperoxidase. Format: biochemical. The following applies: 125 μM Compound 4, 50 μM hydrogen peroxide, PBS, 37° C. The method, then:
Myeloperoxidase (Sigma # M-6908) was diluted to 1 unit/mL using phosphate buffered saline (PBS, 50 mM sodium phosphate, pH 7.4, 150 mM sodium chloride). The solution was then serially diluted two fold using the same buffer. 50 μL of the preparations were added in a 96-well microplate (Nunc # 449824). 20 μL of 625 μM Compound 4 and 30 μl of 165 μM hydrogen peroxide (Aldrich # 323381) in PBS were added to all wells. The final reagent concentration in the wells was zero to 0.5 U/mL myeloperoxidase, 125 μM Compound 4 and 50 μM hydrogen peroxide in 100 μl of PBS.
The resulting reactions were incubated at 37° C. in a PerSeptive Biosystems CytoFluor 4000 microtiter plate reader (Framingham, Mass.). The excitation filter was 530 nm (+/−12.5 nm) and the emission filter 580 nm (+/−25 nm), with a gain setting of 35. Fluorescence was read every five minutes for up to 30 minutes.

In another series the target is T5, Bovine hemoglobin (Bos taurus, UniProt P01966+P02070).
T5 construct: purchased Sigma H-2500
T5 sequence (P01966 2-142 limits assumed): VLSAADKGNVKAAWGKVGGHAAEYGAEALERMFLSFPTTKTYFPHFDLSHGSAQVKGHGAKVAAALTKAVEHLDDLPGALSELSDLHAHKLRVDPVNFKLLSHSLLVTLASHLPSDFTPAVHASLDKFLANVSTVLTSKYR
T5 sequence (P02070 whole entry): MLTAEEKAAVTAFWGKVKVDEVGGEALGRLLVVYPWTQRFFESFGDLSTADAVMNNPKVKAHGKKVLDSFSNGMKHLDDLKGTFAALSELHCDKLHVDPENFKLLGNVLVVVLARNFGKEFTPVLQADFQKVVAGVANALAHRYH
Nature of the series: Hemoglobin assay. Format: biochemical. The following applies: 50 μM dye, 50 μM H2O2, 37° C., thirty minutes, FIG. 3. The method, then: Amplex Red (Molecular Probes Inc. A-12222) and Compound 4 were each resuspended to 10 mM in dry DMSO. Bovine hemoglobin (Sigma, catalog #H-2500) was serially diluted (in triplicate for each dye) two-fold in a 96-well microplate in 50 μl of 50 mM Tris, pH 7.5. 50 μl of either 100 μM Amplex Red+100 μM H2O2 or 100 μM Compound 4+100 μM H2O2 in 50 mM Tris, pH 7.5 was added to all wells. The final reagent concentrations in the wells was zero to 2000 ng/ml bovine hemoglobin, 50 μM H2O2, and 50 μM Amplex Red or Compound 4 in 100 μl of […], pH 7.5.
as §1

A short description of series [3]: Photostability study (continuous irradiation in a spectrofluorimeter). Format: physicochemical. The following applies: solutions matched by optical density 0.03 at 560 nm, aqueous buffer pH 9, continuous irradiation at 560 nm. The method, then:
For example, solutions of each were matched by optical density (0.03 at 560 nm in aqueous buffer at pH 9), then continuously irradiated in a spectrofluorimeter at 560 nm for 30 minutes. Over the duration of the experiment, resorufin photobleached to a greater extent than any of the fluorinated analogs.

Consider eight molecules from patent US7875261B2, “Fluorinated resorufin compounds and their application” (Life Technologies Corporation, priority 2003, dated 2011).

Consider `CC(=O)N1c2cc(F)c(O)cc2Oc2cc(O)c(F)cc21` [Compound 4, 2,8-Difluoro-10-acetyl-3,7-dihydroxyphenoxazine], for which, in series [1], the “Fluorescent signal compared with Amplex Red” value is “greater fluorescent intensity signal”. Besides, the Z-factor came to 0.72 in series [2] (HRP 0.016 units/mL); 0.89 in series [2] (HRP 0.032 units/mL); 0.90 in series [2] (HRP 0.063 units/mL); 0.81 in series [2] (HRP 0.125 units/mL); 0.89 in series [2] (HRP 0.25 units/mL). Further, in series [2] (pH 5.5, FIG. 9), the “Signal strength and dynamic range compared with Amplex Red” value is recorded as “significantly greater”. Moreover, the “Lower limit of detection of HRP activity” value in series [2] was “less than 0.016 units/mL”. Besides, the “Relative fluorescent signal compared with Amplex Red” value on COX-2 was “stronger relative fluorescent signal”. Besides, the figures for the “Limit of detection of myeloperoxidase” value at Myeloperoxidase and at Myeloperoxidase (FIG. 10) were “about 9.6 ng/mL” and 0.0078 U/mL, respectively. Further, at Bovine hemoglobin, the “Fluorescence brightness compared with Amplex Red” value was “brighter”.

As for `O=c1ccc2nc3ccc(O)c(F)c3oc-2c1` [Compound 6], the “Fluorescence remaining after irradiation for 30 minutes at 560 nm” value (“Fluorescence remaining after irradiation” for short) in series [3] stood at 97%.

With `O=c1ccc2nc3c(F)c(F)c(O)c(F)c3oc-2c1` [Compound 9], the “Fluorescence remaining after irradiation” value in series [3] came out at 98%.

For `O=c1ccc2nc3cc(F)c(O)c(F)c3oc-2c1` [Compound 5], in series [3], the “Fluorescence remaining after irradiation” value is recorded as 96%.

For `O=c1ccc2nc3cc(F)c(O)cc3oc-2c1` [Compound 7], the “Fluorescence remaining after irradiation” value in series [3] was found to be 94%.

On to `O=c1ccc2nc3ccc(O)cc3oc-2c1` [resorufin], for which the “Fluorescence remaining after irradiation” value in series [3] is 91%.

Regarding `O=c1ccc2nc3c(F)cc(O)cc3oc-2c1` [Compound 8], the “Fluorescence remaining after irradiation” value in series [3] came to 95%.

For the molecule `CC(=O)N1c2ccc(O)cc2Oc2cc(O)ccc21` [Amplex Red, reference compound], the Z-factor in series [2] (HRP 0.016 units/mL) turned out to be 1.30; in series [2] (HRP 0.063 units/mL) it was 0.51; in series [2] (HRP 0.125 units/mL), 0.69; in series [2] (HRP 0.25 units/mL), 0.85. Moreover, the “Lower limit of detection of HRP activity” value in series [2] was determined as 0.032 units/mL.
